Laboratory results taken from patent publication USRE46698E1, “Use of cyclohexanol derivatives as antimicrobial active compounds” (MERCK PATENT GMBH, priority 2011, dated 2018).

Experiments:
[1] = Rancimate assay, antioxidative capacity (Example 1); conditions: 0.1% w/w in soya oil; 120° C.; input of air 201/h
Method: The antioxidative capacity of substances I-9, I-10 and I-2 is determined in the so-called Rancimate assay. The comparative substances used are 4-t-butyl-1-cyclohexanol and tocopherol. The positive standard employed is BHT. The measurement parameter is the time duration (induction time) of the increase in the conductivity of unstabilised soya oil on exposure to air at elevated temperature. The longer the induction time, the greater the stabilising or antioxidant action. The following boundary conditions were maintained: input of air 201/h; temperature 120° C. and sample concentrations of 0.1% w/w each in soya oil. For each test substance, a relative antioxidation-protection factor is determined, which corresponds to the ratio of the induction times with and without test substance: […]

[2] = system: S. epidermidis (ATCC 12228); assay: Growth inhibition by optical density, Bioscreen C (Example 3); type: cell-based, Staphylococcus epidermidis; conditions: 2nd experiment; 1.0% sample in water/ethanol (12% of ethanol) diluted 1 to 2 with bacteria suspension; 37° C.; negative control 0.65
Method: For sample preparation, the substances being investigated are each dissolved or homogeneously dispersed in an amount of 1.0% in a water/ethanol mixture (12% of ethanol) and subsequently diluted with bacteria suspension in the ratio 1 to 2. S. epidermidis (ATCC 12228) is pre-incubated under aerobic conditions for 24 h at 35° C. on CASO agar (Merck 1.05458). A bacteria suspension having an optical density (OD) of about 1.0 is subsequently prepared in CASO broth (Merck 1.05459, double-concentrated) and diluted again 1:10 in CASO broth. 150 μl of freshly prepared sample are added to 150 μl of bacteria suspension per well. The optical density is determined over the course of time at 37° C. using a Bioscreen C™ analyser compared with the negative control (=vehicle without test substance). Compared with the negative control, reduced optical densities confirm growth-inhibiting substance actions
(§1) Result as optical density of the bacteria suspension after an exposure time of 20 hours: […]

[3] = system: P. acnes (ATCC 6919); assay: Growth inhibition by optical density, Bioscreen C (Example 4); type: cell-based, Propionibacterium acnes; conditions: 1.0% sample in water/ethanol (12% of ethanol) diluted 1 to 2 with bacteria suspension; 37° C.; negative control 1.0
Method: (§2) For sample preparation, the substances being investigated are each dissolved or homogeneously dispersed in an amount of 1.0% in a water/ethanol mixture (12% of ethanol) and subsequently diluted with bacteria suspension in the ratio 1 to 2. P. acnes (ATCC 6919) is pre-incubated under anaerobic conditions for 48 h at 35° C. on RMC agar (Merck 1.05410). A bacteria suspension having an optical density (OD) of about 1.5 is subsequently prepared in RMC broth (Merck 1.05411, double-concentrated). 150 μl of freshly prepared sample and 100 μl of paraffin are added to 150 μl of bacteria suspension per well. The optical density is determined over the course of time at 37° C. using a Bioscreen C™ analyser compared with the negative control (=vehicle without test substance). Compared with the negative control, reduced optical densities confirm growth-inhibiting substance actions.
as §1

[4] = system: S. epidermidis (ATCC 12228); assay: Microbe count determination, bacteriostatic or bactericidal action (Example 5); type: cell-based, Staphylococcus epidermidis; conditions: 24 h at 35° C.
Method: (§3) For sample preparation, the substances being investigated are each dissolved or homogeneously dispersed in an amount of 1.0% in a water/ethanol mixture (12% of ethanol) (=sample). A bacteria suspension of S. epidermidis (ATCC 12228) having an optical density of 1.0 in CASO broth (Merck 1.05459) is diluted 1:10000 with CASO broth. 500 μl of sample are added to 500 μl of bacteria suspension, and the mixture is incubated at 35° C. for 24 h. After the incubation, the test batches are diluted to −6 in 10 unit steps, and 0.1 ml of each is plated-out on CASO agar (Merck 1.05458) and incubated at 35° C. for 24 h.
(§4) In order to determine the initial microbe count, 0.1 ml of the bacteria suspension used are plated-out on CASO agar (Merck 1.05458) and incubated at 35° C. for 24 h.
(§5) The colonies are subsequently counted, and the microbe count per ml is determined compared with the negative control (12% of ethanol in water).

[5] = system: Candida albicans; assay: Antimicrobial action, microbe count (Example 6); type: cell-based; conditions: conc. 0.5%; for Δlog: t24 h
Method: as §3, §4, §5
(§6) The procedure corresponds to that described in Examples 4 and 5 using the microorganisms shown below. The concentrations indicated are the final use concentrations. In order to prepare the stock solution, double the final concentration were prepared in the solvent indicated. This was subsequently diluted 1:2 with the corresponding microbe suspension. In the case of Aspergillus brasiliensis, the microbe count determination was exceptionally carried out after 48 h.

[6] = system: Aspergillus brasiliensis; assay: Antimicrobial action, microbe count (Example 6); type: cell-based; conditions: conc. 0.5%, H2O (12% of ethanol), count t0 2.0 × 10^4
Method: as §2, §3, §4, §5, §6

[7] = system: Corynebacterium xerosis; assay: Antimicrobial action, microbe count (Example 6); type: cell-based; conditions: for Δlog: t24 h
Method: as §2, §3, §4, §5, §6

[8] = system: Echerichia coli; assay: Antimicrobial action, microbe count (Example 6); type: cell-based; conditions: conc. 0.5%, H2O (12% of ethanol), count t0 4.6 × 10^4
Method: as §2, §3, §4, §5, §6

[9] = system: Propionibacterium acnes; assay: Antimicrobial action, microbe count (Example 6); type: cell-based; conditions: conc. 0.5%, H2O (12% of ethanol), count t0 2.0 × 10^4
Method: as §2, §3, §4, §5, §6

[10] = system: Pseudomonas aeruginosa; assay: Antimicrobial action, microbe count (Example 6); type: cell-based; conditions: conc. 0.5%, H2O (12% of ethanol), count t0 6.8 × 10^4
Method: as §2, §3, §4, §5, §6

[11] = system: Salmonella enterica; assay: Antimicrobial action, microbe count (Example 6); type: cell-based; conditions: conc. 0.5%, H2O (12% of ethanol), count t0 6.0 × 10^4
Method: as §2, §3, §4, §5, §6

[12] = system: Serratia marcescens; assay: Antimicrobial action, microbe count (Example 6); type: cell-based; conditions: conc. 0.5%, H2O (12% of ethanol), count t0 6.8 × 10^4
Method: as §2, §3, §4, §5, §6

[13] = system: Staphylococcus aureus; assay: Antimicrobial action, microbe count (Example 6); type: cell-based; conditions: conc. 0.5%, H2O (12% of ethanol), count t0 4.2 × 10^4
Method: as §2, §3, §4, §5, §6

[14] = system: Staphylococcus epidermidis; assay: Antimicrobial action, microbe count (Example 6); type: cell-based; conditions: conc. 0.5%, H2O (12% of ethanol), count t0 3.4 × 10^4
Method: as §2, §3, §4, §5, §6

[15] = Densities and viscosities, Ubbelohde viscometer, to estimate spreadability (Example 10); type: physicochemical; conditions: 25° C.
Method: Measurement of the Dynamic Viscosities in Order to Estimate the Spreadability at 25° C. After measurement of the densities and kinematic viscosities using an Ubbelohde viscometer, the following dynamic viscosities arise: Since spreadabilities and viscosities of cosmetic emollients correlate well, good spreadabilities can be concluded from the viscosities determined.

[16] = H2O (12% of ethanol), count t0 3.4 × 10^4
[17] = conc. 0.125%, H2O, count t0 1.0 × 10^6
[18] = conc. 0.5%, H2O (12% of ethanol), count t0 3.5 × 10^4

CCCCC(CC)COC(=O)C1CCCCC1O (centres unmarked) [Substance I-9, 2-hydroxycyclohexanecarboxylic acid 2-ethylhexyl ester]
Antioxidation-protection factor (ratio of the induction times with and without test substance) [1]: 1.12
OD20h, optical density of the bacteria suspension after 20 hours [2]: 0.30
OD20h, optical density of the bacteria suspension after 20 hours [3]: 0.50
Final microbe count ([4]; 1.0% sample in 12% ethanol, 500 μl + 500 μl bacteria suspension, initial count 3.8 × 10^4, negative control 5.0 × 10^7): 2.0 × 10^3 CFU/ml
Note: bacteriostatic or bactericidal action ([4]; S. epidermidis): bacteriostatic
Microbe count t24 h [5, 16]: 1.5 × 10^1
Δlog [5, 16]: −3.36
Microbe count t24 h ([5]; H2O, count t0 3.8 × 10^5): 8.0 × 10^6
Δlog ([5]; H2O, count t0 3.8 × 10^5): +1.32
Δlog ([6]; count after 48 h): −1.40
Microbe count t24 h ([6]; count carried out after 48 h): 8.0 × 10^2
Microbe count t24 h [7, 17]: 5.0 × 10^6
Δlog [7, 17]: +0.70
Microbe count t24 h [7, 18]: 0
Δlog [7, 18]: −4.54
Microbe count t24 h [8]: 3.8 × 10^2
Δlog ([8]; t24 h): −2.08
Microbe count t24 h [9]: 8.0 × 10^2
Δlog ([9]; t24 h): −1.40
Microbe count t24 h [10]: 9.0 × 10^3
Δlog ([10]; t24 h): −0.88
Microbe count t24 h [11]: 1.8 × 10^4
Δlog ([11]; t24 h): −0.52
Microbe count t24 h [12]: 9.0 × 10^3
Δlog ([12]; t24 h): −0.88
Microbe count t24 h [13]: 1.4 × 10^2
Δlog ([13]; t24 h): −2.48
Microbe count t24 h [14]: 6.0 × 10^3
Δlog ([14]; t24 h): −0.75
Density [15]: 0.9752 g/mL
Dynamic viscosity (kinematic viscosity × density) [15]: 32.2 mPas
Kinematic viscosity ([15]; Ubbelohde viscometer): 33.0 mm^2/s
